Patent US10766899B2, “Methods for preparing substituted imidazo[4,5-b]pyrazines” (Cytokinetics, Inc., priority 2006, dated 2020)

Test system: SKM MF
Experiment: SKM MF AC1.4: ATPase of skeletal sarcomeric proteins (actin, tropomyosin, troponin complex, myosin), PK/LDH coupled enzyme system
Assay type: biochemical
Settings: screen at pCa=6.5, † mean value, ‡ median value
Protocol: For example, test compounds can be assayed in a highly parallel fashion by using multiwell plates by placing the compounds either individually in wells or testing them in mixtures. Assay components including the target protein complex, coupling enzymes and substrates, and ATP can then be added to the wells and the absorbance or fluorescence of each well of the plate can be measured with a plate reader.
In some embodiments, the method uses a 384 well plate format and a 25 μL reaction volume. A pyruvate kinase/lactate dehydrogenase coupled enzyme system (Huang T G and Hackney D D. (1994) J Biol Chem 269(23):16493-501) can be used to measure the rate of ATP hydrolysis in each well. As will be appreciated by those in the art, the assay components are added in buffers and reagents. The incubation periods can be optimized to give adequate detection signals over the background. The assay can be done in real time giving the kinetics of ATP hydrolysis which increases the signal to noise ratio of the assay.
Actin was purified by first preparing an ether powder of cardiac muscle (Zot H G and Potter J D. (1981) Preparative Biochemistry 11:381-395) as described below. Subsequently, actin was cycled between the filamentous and soluble state through rounds of centrifugation and dialysis (Spudich J A and Watt S. (1971) J. Biol. Chem. 246:4866-4871). It was stored in the filamentous state at 4° C.
Tropomyosin was extracted from the ether powder and separated from the other proteins based on pH dependent precipitations followed by successive ammonium sulfate cuts at 53% and 65% (Smillie L B. (1981) Methods Enzymol 85 Pt B:234-41). The troponins were isolated as an intact complex of TnC, TnT, and TnI. Ether powder is extracted in a high salt buffer. Successive ammonium sulfate cuts of 30% and 45% were done; the precipitate was solubilized by dialysis into a low salt buffer and then further purified on a DEAE Toyopearl column with a 25-350 mM KCl gradient.
Just prior to screening, the actin, tropomyosin, and troponin complex are mixed together in the desired ratio (e.g., 7:1:1) to achieve maximal calcium regulation of the actin filament. The screen is conducted at a pCa=6.5. This calcium concentration is in the physiological range during muscle contraction.
To measure the generation of ADP during the reaction, a pyruvate kinase/lactate dehydrogenase/NADH coupled enzyme system (PK/LDH) is added to the actin. The myosin is kept separately. The plates are read in real time so that kinetic curves are obtained. These compounds are in DMSO and were already spotted onto the bottoms of 384 well plates at 10 to 40 μg/ml final concentration.
• 1. Obtain ˜1000 g skeletal muscle, such as rabbit skeletal muscle. • 2. Grind twice; extract with 2 L solution A for 15 min while stirring; add 4 L cold H2O, filter through gauze; dilute with cold H2O to ionic strength of 0.04, (about 10-fold); let settle for 3 h; collect precipitate at 7,000 rpm in GSA rotor for 15 min. • 3. Disperse pellet in 220 ml solution B; dialyze overnight against 6 L solution C; slowly add ˜400 ml equal volume cold distilled H2O; stir for 30 min; centrifuge at 10,000 rpm for 10 min in GSA rotor. • 4. Centrifuge supernatant at 19,000 rpm for 1 h. • 5. Dilute supernatant to ionic strength of 0.04 (˜8-fold); let myosin settle overnight; collect about 5-6 L fluffy myosin precipitate by centrifuging at 10,000 rpm for 10 min in GSA rotor. • 6. Resuspend pellet in minimal volume of solution G; dialyze overnight against 2 L solution D; centrifuge at 19,000 rpm for 2 h, in cellulose nitrate tubes; puncture tubes and separate myosin from fat and insoluble pellet. • 7. Dilute supernatant to 5-10 mg/ml and dialyze against solution E extensively, load onto DEAE-sephadex column. • 8. […]

| Molecule | SKM MF AC1.4 | further results |
| --- | --- | --- |
| 1-(ethylpropyl)-6-(1-methylpyrazol-4-yl)imidazo[4,5-b]pyrazin-2-ol | 15 µM |  |
| 6-ethyl-1-(ethylpropyl)imidazo[4,5-b]pyrazin-2-ol | 8.58 µM |  |
| CCC(CC)n1c(O)nc2nc3ccccc3nc21 [1-(pentan-3-yl)-1H-imidazo[4,5-b]quinoxalin-2-ol] | 19.8 µM |  |
| C=Cc1cnc2nc(O)n([C@@H](C)c3ccccc3)c2n1 [(S)-1-(1-phenylethyl)-6-vinyl-1H-imidazo[4,5-b]pyrazin-2-ol] | 2.4 µM |  |
| C/C=C\c1cnc2nc(O)n(C3CCCCC3)c2n1 [(Z)-1-cyclohexyl-6-(prop-1-enyl)-1H-imidazo[4,5-b]pyrazin-2-ol] | 6.0 µM |  |
| CCC(CC)n1c(O)nc2ncc(OC)nc21 [6-methoxy-1-(pentan-3-yl)-1H-imidazo[4,5-b]pyrazin-2-ol] | 2.2^‡ μM | SKM MF AC1.4 (listed as 1-(ethylpropyl)-6-methoxyimidazo[4,5-b]pyrazin-2-ol): 2.20 µM; SKM MF AC1.4 (listed as 6-methoxy-1-(pentan-3-yl)-1H-imidazo[4,5-b]pyrazin-2(3H)-one): 2.2^‡ μM |
| CC[C@@H](C)n1c(O)nc2ncc(Br)nc21 [(R)-6-bromo-1-sec-butyl-1H-imidazo[4,5-b]pyrazin-2-ol] | 1.5 µM |  |
| CCC(CN1CCN(S(C)(=O)=O)CC1)n1c(O)nc2ncc(Br)nc21 (stereo not drawn) [6-bromo-1-(1-(4-(methylsulfonyl)piperazin-1-yl)butan-2-yl)-1H-imidazo[4,5-b]pyrazin-2-ol] | 3.2^† μM |  |
| C=Cc1cnc2nc(O)n(C(CC)CC)c2n1 [1-(ethylpropyl)-6-vinylimidazo[4,5-b]pyrazin-2-ol] | 2.3 µM |  |
| CCCc1cnc2nc(O)n([C@@H](C)c3ccccc3)c2n1 [(S)-1-(1-phenylethyl)-6-propyl-1H-imidazo[4,5-b]pyrazin-2-ol] | 29.7 µM |  |
| CCC(COC)n1c(O)nc2ncc(Br)nc21 (stereo not drawn) [6-bromo-1-(1-methoxybutan-2-yl)-1H-imidazo[4,5-b]pyrazin-2-ol] | 4.9 µM |  |
| CCC(CC)n1c(O)nc2ncc(SC)nc21 [6-(methylthio)-1-(pentan-3-yl)-1H-imidazo[4,5-b]pyrazin-2-ol] | 0.4 µM |  |
| C/C=C\c1cnc2nc(O)n([C@@H](C)c3ccccc3)c2n1 [(S,Z)-1-(1-phenylethyl)-6-(prop-1-enyl)-1H-imidazo[4,5-b]pyrazin-2-ol] | 1.0 µM |  |
| COc1cnc2nc(O)n([C@@H](C)c3ccccc3)c2n1 [(S)-6-methoxy-1-(1-phenylethyl)-1H-imidazo[4,5-b]pyrazin-2-ol] | 8.8 µM |  |
| CC[C@H](CO)n1c(O)nc2ncc(Br)nc21 [(R)-6-bromo-1-(1-hydroxybutan-2-yl)-1H-imidazo[4,5-b]pyrazin-2-ol] | 1.1 µM |  |
| CC[C@@H](CO)n1c(O)nc2ncc(Br)nc21 [(S)-6-bromo-1-(1-hydroxybutan-2-yl)-1H-imidazo[4,5-b]pyrazin-2-ol] | 19.1 µM |  |
| CCc1cnc2nc(O)n([C@@H](C)c3ccccc3)c2n1 [(S)-1-(1-phenylethyl)-6-ethyl-1H-imidazo[4,5-b]pyrazin-2-ol] | 17.4 µM |  |
| C/C=C/c1cnc2nc(O)n([C@@H](C)c3ccccc3)c2n1 [(S,E)-1-(1-phenylethyl)-6-(prop-1-enyl)-1H-imidazo[4,5-b]pyrazin-2-ol] | 1.6 µM |  |
| CC(C)=Cc1cnc2nc(O)n([C@@H](C)c3ccccc3)c2n1 [(S)-6-(2-methylprop-1-enyl)-1-(1-phenylethyl)-1H-imidazo[4,5-b]pyrazin-2-ol] | 2.7 µM |  |
| CC[C@H](CN1CCOCC1)n1c(O)nc2ncc(Br)nc21 [(R)-6-bromo-1-(1-morpholinobutan-2-yl)-1H-imidazo[4,5-b]pyrazin-2-ol] | 0.3 µM |  |
| 6-bromo-1-(propylbutyl)imidazo[4,5-b]pyrazin-2-ol | 0.7 µM |  |

| Molecule | SKM MF AC1.4 | further results |
| --- | --- | --- |
| C/C=C/c1cnc2nc(O)n(C(CC)CC)c2n1 [(E)-1-(pentan-3-yl)-6-(prop-1-enyl)-1H-imidazo[4,5-b]pyrazin-2-ol] | 0.4 µM |  |
| C[C@H](c1ccccc1)n1c(O)nc2ncc(Br)nc21 [(R)-6-bromo-1-(1-phenylethyl)-1H-imidazo[4,5-b]pyrazin-2-ol] | 2.4 µM |  |
| CCOc1cnc2nc(O)n([C@@H](C)c3ccccc3)c2n1 [(S)-6-ethoxy-1-(1-phenylethyl)-1H-imidazo[4,5-b]pyrazin-2-ol] | 10.6 µM |  |
| C/C=C/c1cnc2nc(O)n(C(C)C)c2n1 [(E)-1-isopropyl-6-(prop-1-enyl)-1H-imidazo[4,5-b]pyrazin-2-ol] | 7.1 µM |  |
| CCC(CC)n1c(O)nc2ncc(Cl)nc21 [6-chloro-1-(ethylpropyl)imidazo[4,5-b]pyrazin-2-ol] | 0.7 µM |  |
| CCC/C=C\Cc1cnc2nc(O)n([C@@H](C)c3ccccc3)c2n1 [(S,Z)-6-(hex-2-enyl)-1-(1-phenylethyl)-1H-imidazo[4,5-b]pyrazin-2-ol] | 3.1 µM |  |
| CCC(C(=O)O)n1c(O)nc2ncc(Br)nc21 (stereo not drawn) [2-(6-bromo-2-hydroxy-1H-imidazo[4,5-b]pyrazin-1-yl)butanoic acid] | >49 µM |  |
| CSc1cnc2nc(O)n(C(C)C)c2n1 [1-isopropyl-6-(methylthio)-1H-imidazo[4,5-b]pyrazin-2-ol] | 6.7 µM |  |
| C[C@H](CN1CCOCC1)n1c(O)nc2ncc(Br)nc21 [(R)-6-bromo-1-(1-morpholinopropan-2-yl)-1H-imidazo[4,5-b]pyrazin-2-ol] | 5.2^‡ μM | SKM MF AC1.4 (listed as 1-((1R)-1-methyl-2-morpholin-4-ylethyl)-6-bromoimidazo[4,5-b]pyrazin-2-ol): 5.19 µM; SKM MF AC1.4 (listed as (R)-6-bromo-1-(1-morpholinopropan-2-yl)-1H-imidazo[4,5-b]pyrazin-2(3H)-one): 5.2^‡ μM |
| Oc1nc2ncc(Br)nc2n1Cc1ccccc1 [1-benzyl-6-bromo-1H-imidazo[4,5-b]pyrazin-2-ol] | 23.5 µM |  |
| CCC(CC)n1c(O)nc2nc(Br)cnc21 [5-bromo-1-(pentan-3-yl)-1H-imidazo[4,5-b]pyrazin-2-ol] | 11.5 µM |  |
| CCC(CC)n1c(O)nc2ncc(Br)nc21 [6-bromo-1-(pentan-3-yl)-1H-imidazo[4,5-b]pyrazin-2-ol] | 0.25 µM |  |
| CC[C@@H](CN1CCOCC1)n1c(O)nc2ncc(Br)nc21 [(S)-6-bromo-1-(1-morpholinobutan-2-yl)-1H-imidazo[4,5-b]pyrazin-2-ol] | >49 µM |  |
| CSc1cnc2nc(O)n(C3CCCCC3)c2n1 [1-cyclohexyl-6-(methylthio)-1H-imidazo[4,5-b]pyrazin-2-ol] | 13.9 µM |  |
| CCC(CN)n1c(O)nc2ncc(Br)nc21 (stereo not drawn) [1-(1-aminobutan-2-yl)-6-bromo-1H-imidazo[4,5-b]pyrazin-2-ol] | 1.1 µM |  |
| CC(C)n1c(O)nc2ncc(Br)nc21 [6-bromo-1-isopropyl-1H-imidazo[4,5-b]pyrazin-2-ol] | 6.0 µM |  |
| 1-(ethylpropyl)-6-{2-[1-(ethylpropyl)-2-hydroxyimidazo[4,5-e]pyrazin-6-yl]ethynyl}imidazo[4,5-b]pyrazin-2-ol | 19.32 µM |  |
| CCC(CN1CCN(C)CC1)n1c(O)nc2ncc(Br)nc21 (stereo not drawn) [6-bromo-1-(1-(4-methylpiperazin-1-yl)butan-2-yl)-1H-imidazo[4,5-b]pyrazin-2-ol] | 14.9 µM |  |
| CCC(CC)n1c(O)nc2ncc(C#N)nc21 [2-hydroxy-1-(pentan-3-yl)-1H-imidazo[4,5-b]pyrazine-6-carbonitrile] | 36.4 µM |  |
| CCC(CN1CCN(C(=O)OC)CC1)n1c(O)nc2ncc(Br)nc21 (stereo not drawn) [methyl 4-(2-(6-bromo-2-hydroxy-1H-imidazo[4,5-b]pyrazin-1-yl)butyl)piperazine-1-carboxylate] | 0.9^† μM |  |
